PubChem BioAssay (NCI)
Several values for one entry are separate records, joined by “and”; a condition that tells them apart may be missing. Equal entries are not always repeated.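 A five-concentration, 48-hour dose response in 96-well plates underlies each endpoint, interpolated linearly between surrounding concentrations. Here, GI50 denotes the concentration required for 50% inhibition of growth. TGI marks complete inhibition of growth.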 Numbered stars: 1 amine (or outer) side, 2 acyl side, 3 side chain; on linkers, the order of the positions; unused ones are H or OH. Bridge positions count the residues as written; N and C are the ends. Square brackets hold non-standard residues; d marks the D form. Peptide text beside a SMILES is read from it. I, II: the chains in the order shown. Actinocin(1to9) = Cc1c2oc3c(C)ccc(C(=O)[*:2])c3nc-2c(C(=O)[*:1])c(N)c1=O; NMeY = CN[CH](Cc1ccc(O)cc1)C(=O)O; Sar = CNCC(=O)O

Key:
Experiment in all cases: inhibition of tumour cell growth, NCI panel, 48 h
M14 melanoma = system: M14 melanoma
NCI-H460 lung = system: NCI-H460 lung
OVCAR-3 ovarian = system: OVCAR-3 ovarian
OVCAR-4 ovarian = system: OVCAR-4 ovarian
SK-MEL-5 melanoma = system: SK-MEL-5 melanoma
SK-OV-3 ovarian = system: SK-OV-3 ovarian
UACC-62 melanoma = system: UACC-62 melanoma
UO-31 renal = system: UO-31 renal

Structure (SMILES)	TGI (M14 melanoma)	TGI (NCI-H460 lung)	TGI (OVCAR-3 ovarian)	TGI (OVCAR-4 ovarian)	TGI (SK-MEL-5 melanoma)	TGI (SK-OV-3 ovarian)	TGI (UACC-62 melanoma)	TGI (UO-31 renal)	GI50 (M14 melanoma)	GI50 (NCI-H460 lung)	GI50 (SK-OV-3 ovarian)
COc1cc(/C=N/N=C(\N)NO)c([N+](=O)[O-])cc1OC	> 100 µM	> 100 µM	> 100 µM	> 100 µM	50.9 µM	> 100 µM	59 µM	> 100 µM	–	–	–
C=C1C(OC(C)=O)CC(OC(C)=O)C2(C)C(OC(C)=O)C(OC(C)=O)C3=C(C)C(OC(=O)/C=C/c4ccccc4)CC(C(OC(C)=O)C12)C3(C)C (stereo unspecified)	> 100 µM	> 100 µM	–	> 100 µM	> 100 µM	> 100 µM	> 100 µM	> 100 µM	–	–	–
COc1ccc(CC2C(=O)OC(C)C(NC(=O)c3c4nc5c(C(=O)NC6C(=O)NC(C(C)C)C(=O)N7CCCC7C(=O)N(C)CC(=O)N(C)C(Cc7ccc(OC)cc7)C(=O)OC6C)ccc(C)c5oc-4c(C)c(=O)c3N)C(=O)NC(C(C)C)C(=O)N3CCCC3C(=O)N(C)CC(=O)N2C)cc1 (stereo unspecified) (I: TVP[Sar][NMeY](Me) / II: TVP[Sar][NMeY](Me); ester I:1-I:C, II:1-II:C; linker I:N-II:N via Actinocin(1to9); configuration not given here)	–	< 0.01 µM	–	< 0.01 µM	–	–	–	–	< 0.01 µM and 0.0665 µM	< 0.01 µM	< 0.01 µM and 0.0582 µM
CC1=CCCC2C(C=O)(C1)CC(C)C2(CO)CC/C(=C/CO)CO (stereo unspecified)	> 100 µM	> 100 µM	> 100 µM	–	> 100 µM	> 100 µM	> 100 µM	82.8 µM	–	–	–
Nc1c2ccccc2nc2c(C(=O)Nc3ccc(S(N)(=O)=O)cc3)cccc12	> 100 µM	> 100 µM	> 100 µM	> 100 µM	> 100 µM	> 100 µM	> 100 µM	> 100 µM	–	–	–
CC(=O)Oc1ccc2c(c1)C(=O)c1nc(C)c(C)nc1C2=O	> 100 µM	> 90.1 µM	59.1 µM	> 89 µM	30.1 µM	> 100 µM	38.8 µM	> 100 µM	–	–	–
O=C1NC2C(O)CCCCC2C12CCCCC2 (stereo unspecified)	> 100 µM	> 100 µM	> 100 µM	> 100 µM	> 100 µM	> 100 µM	> 100 µM	> 100 µM	–	–	–
